Measured values published in patent US10308659B2, “Pyridine derivatives” (Hoffmann-La Roche Inc., priority 2013, dated 2019).

Columns and labels:
human CB2 receptors = human CB2 receptors (Homo sapiens (Human), UniProt P34972); assay: cAMP assay, CHO cells expressing human CB2 receptors; type: cell-based; conditions: functional cAMP assay, CHO cells expressing human CB2; read-out: EC50 CB2 human
In short: (§1)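 Transfected CHO cells were preincubated in Krebs Ringer bicarbonate buffer with 1 mM IBMX for 30 min at 30 °C, then exposed to compound for 30 min at 30 °C. cAMP was measured by time-resolved FRET (730/645 nm) against a standard curve spanning 10 μM to 0.13 nM. EC50 values derived from concentration–response data.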

human CB1 receptors = human CB1 receptors (Homo sapiens (Human), UniProt P21554); assay: cAMP assay, CHO cells expressing human CB1 receptors; type: cell-based; conditions: functional cAMP assay, CHO cells expressing human CB1; read-out: EC50 CB1 human
human CB1 receptors, sequence (P21554 whole entry): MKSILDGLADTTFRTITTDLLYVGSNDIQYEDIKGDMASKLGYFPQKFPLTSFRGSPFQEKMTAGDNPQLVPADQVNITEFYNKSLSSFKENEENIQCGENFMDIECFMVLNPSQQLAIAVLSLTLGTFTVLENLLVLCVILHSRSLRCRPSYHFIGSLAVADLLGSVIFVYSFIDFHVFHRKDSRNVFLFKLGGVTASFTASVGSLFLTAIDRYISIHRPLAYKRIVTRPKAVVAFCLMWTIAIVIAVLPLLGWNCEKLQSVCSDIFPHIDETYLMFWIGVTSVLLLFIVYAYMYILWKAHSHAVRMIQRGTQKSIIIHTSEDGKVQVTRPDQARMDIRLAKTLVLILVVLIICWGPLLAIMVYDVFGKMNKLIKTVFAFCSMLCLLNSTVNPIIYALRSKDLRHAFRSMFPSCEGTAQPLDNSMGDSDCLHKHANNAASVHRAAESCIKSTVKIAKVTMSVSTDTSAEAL
In short: as §1

human CB2 receptors, sequence (P34972 whole entry): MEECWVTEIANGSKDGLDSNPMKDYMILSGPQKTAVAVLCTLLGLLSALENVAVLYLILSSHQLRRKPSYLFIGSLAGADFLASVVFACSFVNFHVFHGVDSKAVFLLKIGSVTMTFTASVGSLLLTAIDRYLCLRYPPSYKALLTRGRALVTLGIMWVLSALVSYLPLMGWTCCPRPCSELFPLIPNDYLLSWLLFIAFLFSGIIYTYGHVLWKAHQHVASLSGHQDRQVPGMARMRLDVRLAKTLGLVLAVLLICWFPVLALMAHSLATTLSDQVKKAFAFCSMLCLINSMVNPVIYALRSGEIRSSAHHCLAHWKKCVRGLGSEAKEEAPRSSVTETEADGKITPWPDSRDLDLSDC

CC1(c2nc(-c3cc(OCC(F)(F)F)c(N4CC(F)(F)C4)cn3)no2)CC1 [Example 50, 3-[5-(3,3-difluoroazetidin-1-yl)-4-(2,2,2-trifluoroethoxy)pyridin-2-yl]-5-(1-methylcyclopropyl)-1,2,4-oxadiazole]
EC50 (human CB2 receptors): 45.8 nM | EC50 (human CB1 receptors): > 10000 nM

CC(C)(C)c1c[nH]c(-c2cc(OCC(F)(F)F)c(N3CC(F)(F)C3)cn2)n1 [Example 64, 2-(5-tert-butyl-1H-imidazol-2-yl)-5-(3,3-difluoroazetidin-1-yl)-4-(2,2,2-trifluoroethoxy)pyridine]
EC50 (human CB2 receptors): 87.5 nM | EC50 (human CB1 receptors): > 10000 nM

CCc1nc(-c2cc(OCC3CC3)c(C3CC3)cn2)no1 [Example 13, 3-[5-cyclopropyl-4-(cyclopropylmethoxy)pyridin-2-yl]-5-ethyl-1,2,4-oxadiazole]
EC50 (human CB2 receptors): 31.9 nM | EC50 (human CB1 receptors): > 10000 nM

CC(C)(C)c1nc(-c2cc(N3CCC(O)C3)c(C3CC3)cn2)no1 (stereo not shown) [Example 73, 1-[2-(5-tert-butyl-1,2,4-oxadiazol-3-yl)-5-cyclopropylpyridin-4-yl]pyrrolidin-3-ol]
EC50 (human CB2 receptors): 57.2 nM | EC50 (human CB1 receptors): > 10000 nM

CCC1(CC)COC(c2cc(OCC(F)(F)F)c(N3CC(F)(F)C3)cn2)=N1 [Example 30, 2-[5-(3,3-difluoroazetidin-1-yl)-4-(2,2,2-trifluoroethoxy)pyridin-2-yl]-4,4-diethyl-5H-1,3-oxazole]
EC50 (human CB2 receptors): 2.6 nM | EC50 (human CB1 receptors): > 10000 nM
